# Data reported in patent US20230383291A1, “PEPTIDE-BASED TRANSDUCTION OF NON-ANIONIC POLYNUCLEOTIDE ANALOGS FOR GENE EXPRESSION MODULATION” (FELDAN BIO INC., priority 2020, published 2023).
# Where a SMILES comes first, the peptide text is derived from it.
# Experiments:
# Type in all cases: cell-based, Human
# RH-30 cells = test: in vitro; conditions: 6 μM PMO-FITC, increasing shuttle concentrations, 2 minutes
# Experimental: (§1) Although naked DNA/RNA cargoes are shown to themselves be poor cargoes of synthetic peptide shuttle agents (Examples 3 and 9), the present Example evaluates their potential dominant negative effect in trans on shuttle agent-mediated transduction of PMO cargoes. Briefly, RH-30 cells (150,000 cells/well in 24-well dish) were contacted with a delivery mix of 6 μM of a PMO-FITC and of 5 μM of the synthetic peptide shuttle agent FSD250 for 2 minutes in RPMI, in the presence of increasing amounts of a DNA oligonucleotide or an sgRNA spiked in medium. Cells were then washed, incubated in growth medium and then collected for analysis by flow cytometry after 1 h. […] In all conditions tested, cell viability remained above 75%.
# (§2) The present Example compares the PMO transduction activity of a prototypical CPD-comprising first generation shuttle agent with that of two rationally-designed second generation synthetic peptide shuttle agents. Briefly, RH-30 cells (20,000 cells/well in 96-well dish) were contacted with a delivery mix of 6 μM of a PMO-FITC and increasing concentrations of the first-generation shuttle agent His-CM18-PTD4 or two CPD-lacking second generation synthetic peptide shuttle agents (FSD250 and FSD10) for 2 minutes in RPMI. Cells were washed, incubated in complete medium and then collected for analysis by flow cytometry after 1 h. […]
# HeLa cells [1] = test: PMO, PNA and siRNA transduction in HeLa cells with FSD250; conditions: all conditions tested, FIG. 7B
# Experimental: Phosphorodiamidate morpholino oligomers labeled with the fluorophore FITC (PMO-FITC) were prepared at 1 mM in sterile water. HeLa cells were plated (20 000 cells/well) in a 96 well-dish the day prior to the experiment. Each delivery mix comprising a synthetic peptide shuttle agent (7.5, 10 or 20 μM) and a PMO-FITC (6 μM) was prepared and completed to 50 μL with RPMI-1640 media. Cells were washed once with PBS and the shuttle agent/PMO-FITC or PMO-FITC alone added on cells for five minutes. Then, 100 μL DMEM containing 10% FBS was added to the mix and removed. Cells were washed once with PBS and incubated in DMEM containing 10% FBS. Cells were analyzed after a 2-hour incubation by flow cytometry.
# HeLa cells were transduced with 10 μM of PMO-FITC or fluorescently-labeled Peptide Nucleic Acid (PNA) (PNA TelC-Alexa 488; cat. no. F1004; PNA BIO Inc.) as generally described in the transduction protocol described in Example 1 with a few modifications. The shuttle peptide used was FSD250 (5 μM) and cells were contacted with the cargo and shuttle agent for two minutes, and cells were analyzed after a 1-hour incubation by flow cytometry.
# in vitro = conditions: human, RH-30 cells
# Experimental: as §1, §2
# HeLa cells [2] = test: Propidium iodide (PI) transduction screening in HeLa cells; conditions: negative control peptide tested in parallel; data not shown
# Experimental: HeLa cells were plated (20 000 cells/well) in a 96 well-dish the day prior to the experiment. Each delivery mix comprising a synthetic peptide shuttle agent (10 μM) and the propidium iodide (PI) (10 μg/mL) or the GFP-NLS (10 μM) were prepared and completed to 50 μL with phosphate-buffered saline (PBS) for PI or with RPMI-1640 medium for GFP-NLS. Cells were washed once and the shuttle agent/PI or shuttle agent/GFP-NLS added on cells for one minute (PI) or 5 minutes (GFP-NLS). Then 100 μL DMEM containing 10% FBS was added to the mix and removed. Cells were washed once with PBS and incubated in DMEM containing 10% FBS. Cells were analyzed after 2-hour incubation by flow cytometry. Cells were analyzed […]. […]
# Due to the large number of peptides screened, negative controls were performed in parallel for each experimental batch and included a “no treatment” (NT) control in which the cells were not exposed to shuttle peptide or cargo, as well as a “cargo alone” control in which cells were exposed to the cargo in the absence of shuttle agent. […] Mean PI or GFP-NLS delivery score was calculated by multiplying the mean fluorescence intensity (of at least duplicate samples) measured for the viable PI+ or GFP+ cells by the mean percentage of viable PI+ or GFP+ cells, divided by 100,000 for GFP delivery or by 10,000 for PI delivery. […]
# Gli1 protein = test: Gli1 knock-down in DU145 cells, Western blot; conditions: FITC+ cells vs FITC− cells; 6 μM PMO, 5 μM FSD250, 48 hours
# Experimental: DU145 cells were trypsinized and plated (500 000 cells/well) in a 24 well-dish the day prior to the experiment. […] Cells were washed once with PBS and delivery mixes were added on cells for five minutes. Then, 2 mL of RPMI-1640 containing 10% FBS was added to the mix and removed. Untreated cells were incubated with RPMI-1640 only. Cells were incubated in fresh RPMI-1640 containing 10% FBS. Forty height hours later, medium was removed and cells were washed once with PBS prior to trypsinization. Cells were harvested, collected by centrifugation, washed, and resuspended with PBS. Then, PMO-FITC positive and PMO-FITC negative cells were sorted and collected by virtue of FACS (BD FACS Aria Fusion). FITC-positive and FITC-negative cell samples were collected by centrifugation and resuspended in 50 μL protein extraction RIPA buffer (150 mM NaCl, 1% Nonidet™ P-40, 0.1% SDS, 0.5% Sodium deoxycholate, 25 mM Tris). Total protein concentrations were measured with a BCA protein assay kit. For all conditions, 10 μg of proteins were prepared at a final volume of 40 μL with 4× Laemmeli and RIPA buffer. Protein samples were then heated at 90° C. and separated through an 8% SDS-PAGE gel. Proteins were then transferred over night (25 volts) onto a […] PVDF membrane. Membranes were blocked using a 5% bovine serum albumin, Tris Buffer Saline, 0.1% Tween® 20 solution (5% BSA/TBS-T) for an hour. After blocking, the membrane was incubated for an hour with a 5% BSA/TBS-T solution containing anti alpha-Actinin (D6F6) primary antibody at a 1:1000. Alpha-Actinin protein present in the cell lysates served as loading control. Subsequently, the membranes were incubated over night with a 5% BSA/TBS-T solution containing anti-Gli1 primary antibody diluted 1:500. The membrane was then subjected to a 1-hour incubation at 1:5000 dilution of HRP-conjugated goat anti-rabbit secondary antibody 5% BSA/TBS-T solution. Chemiluminescence detection was performed using Clarity™ Western ECL Substrate and a ChemiDoc™ XRS apparatus. Gli1 and Alpha-Actinin densitometry was assessed using ImageJ™ software. […]
# HeLa cells [3] = test: PMO-FITC delivery in HeLa cells, immunofluorescence microscopy (vs Endoporter); conditions: 10 μM PMO-FITC with shuttle agent, 5-minute incubation in RPMI
# Experimental: A PMO cargo delivery experiment in HeLa cells was performed to directly compare synthetic peptide shuttle agent-mediated PMO transduction with Endoporter-mediated intracellular PMO delivery. For shuttle agent-mediated transduction, HeLa cells were exposed to 10 μM of PMO-FITC in the presence of 2.5, 5, 7.5, or 10 μM of the second-generation shuttle agent FSD396 for 5 minutes in RPMI. For Endoporter-mediated delivery, HeLa cells were exposed to 10 μM of PMO-FITC in the presence of 2.5, 5, 7.5, or 10 μM of the commercially-available Endoporter' peptide (GeneTools, LLC) in growth medium for the manufacturer's recommended minimum incubation time of at least 24 hours. After a washing step, delivery results were compared by observing intracellular PMO-FITC fluorescence via immunofluorescence microscopy and results are shown in FIG. 11.
molecule,measurement,setting,value
FSD10: CPD-lacking second generation synthetic peptide shuttle agent (KWKLARAFARAIKKLGGSGGGSYARALRRQARTG; FSD10),PMO-FITC transduction efficiency compared to His-CM18-PTD4,RH-30 cells,higher transduction efficiencies
CC(C)C[C@H](NC(=O)[C@H](CCCCN)NC(=O)[C@H](CC(C)C)NC(=O)[C@H](CC(C)C)NC(=O)[C@H](CCCNC(=N)N)NC(=O)[C@H](CO)NC(=O)[C@H](Cc1c[nH]c2ccccc12)NC(=O)[C@H](CC(C)C)NC(=O)[C@H](CCCCN)NC(=O)[C@H](CC(C)C)NC(=O)[C@H](CC(C)C)NC(=O)[C@H](CCCCN)NC(=O)[C@H](Cc1c[nH]c2ccccc12)NC(=O)[C@@H](N)CCCCN)C(=O)N[C@@H](Cc1c[nH]c2ccccc12)C(=O)NCC(=O)NCC(=O)N[C@@H](CO)C(=O)NCC(=O)NCC(=O)NCC(=O)N[C@@H](CO)C(=O)N[C@@H](C)C(=O)N[C@@H](CCCNC(=N)N)C(=O)N[C@@H](C)C(=O)N[C@@H](C)C(=O)N[C@@H](CCCNC(=N)N)C(=O)N[C@@H](CCC(N)=O)C(=O)N[C@@H](C)C(=O)N[C@@H](CCCNC(=N)N)C(=O)O [FSD250] (H-KWKLLKLWSRLLKLWGGSGGGSARAARQAR-OH),Cell viability,HeLa cells [1],remained high
same,"viability at 2 min, 5 µM",in vitro,> 75%
FSD174 Scramble: negative control peptide known to have low or no GFP transduction activity (LGRSGRIKIGGWSALASRARQARGLKIWTQGRL; FSD174 Scramble),PI transduction efficiency compared to cargo alone,HeLa cells [2],lower transduction efficiencies for PI
PMO-Wnt1: antisense PMO molecule designed to knock-down expression of the Wnt1 protein (antisense GCAACAGCGCCCAGAGCCCCATG; all phosphorodiamidate morpholino (PMO)),Gli1 protein expression,Gli1 protein,knocked-down
FSD396: second-generation shuttle agent (KLKLAKLLLKALKKLGGSGGGSQAKAQAKQAK; FSD396),intracellular delivery of PMO-FITC,HeLa cells [3],robust intracellular delivery
